Results reported in patent US9382254B2, “Compounds and pharmaceutical compositions thereof for the treatment of cystic fibrosis” (Galapagos NV, priority 2013, dated 2016).
Like-named read-outs stand apart in the source and are kept apart here.

Legend:
Type in all cases: cell-based
[1] = biological target: T1, CFTR-S549N (Homo sapiens, UniProt P13569, S549N); assay: YFP-halide influx assay for the CFTR-S549N
T1 construct: expressed in transfected cells
Text: (§1) The YFP halide influx assay measures the functionality of the cystic fibrosis Transmembrane Conductance regulator (CFTR) channels. The assay is used to evaluate the capacity of compounds to increase the channel opening of existing mutant CFTR channels in the membrane. It makes use of the observation that the yellow fluorescent protein (YFP) variant YFP H148Q, I152L, […] has its fluorescence substantially quenched by halide ions like Cl^− and I^−. (Galietta, Haggie, & Verkman, 2001)
(§2) For this purpose, HEK293-cells are seeded in 96 well plates. During seeding, the cells are reverse-transfected with plasmid vectors that direct the expression of the CFTR G551D mutant and of the YFP reporter. Cells are incubated at 37° C., 5% CO2 for 24 hours so as to allow for sufficient expression of the CFTR protein.
(§3) The I^−-induced quenching of fluorescence is recorded immediately after injection of I^− for 7 seconds. The capacity of a compound to increase the channel opening is directly correlated with the decrease in fluorescence, and is expressed as (1-(fluorescence after 7 seconds (F)/fluorescence before injection (F0))) and an EC50 can be derived from a (1-F/F0) vs compound concentration plot.
(§4) Similar YHA assays were developed for other channel gating defective or channel conductance defective CFTR mutants to determine effect of compound on channel activity. Examples of mutants are G178R, G1349D, S549N, R117H, R334W. This assay is also used for additional class I CFTR mutants, including G542X, W1282X; class II mutants including N1303K, and for class III mutants including S1251N.

[2] = biological target: T2, CFTR ΔF508 mutant (Homo sapiens, UniProt P13569, DEL508-508); assay: YFP-halide influx assay for the CFTR-ΔF508 mutation (384 well, FDSS/μCell); details: CFBE41o- cells, CFTR-ΔF508, 1×D-PBS, fluorescence after 36 seconds
T2 construct: expressed in transfected cells; host or cells: CFBE41o- (adenoviral transduction)
T2 sequence (P13569 with tags, fused parts or gaps DEL508-508): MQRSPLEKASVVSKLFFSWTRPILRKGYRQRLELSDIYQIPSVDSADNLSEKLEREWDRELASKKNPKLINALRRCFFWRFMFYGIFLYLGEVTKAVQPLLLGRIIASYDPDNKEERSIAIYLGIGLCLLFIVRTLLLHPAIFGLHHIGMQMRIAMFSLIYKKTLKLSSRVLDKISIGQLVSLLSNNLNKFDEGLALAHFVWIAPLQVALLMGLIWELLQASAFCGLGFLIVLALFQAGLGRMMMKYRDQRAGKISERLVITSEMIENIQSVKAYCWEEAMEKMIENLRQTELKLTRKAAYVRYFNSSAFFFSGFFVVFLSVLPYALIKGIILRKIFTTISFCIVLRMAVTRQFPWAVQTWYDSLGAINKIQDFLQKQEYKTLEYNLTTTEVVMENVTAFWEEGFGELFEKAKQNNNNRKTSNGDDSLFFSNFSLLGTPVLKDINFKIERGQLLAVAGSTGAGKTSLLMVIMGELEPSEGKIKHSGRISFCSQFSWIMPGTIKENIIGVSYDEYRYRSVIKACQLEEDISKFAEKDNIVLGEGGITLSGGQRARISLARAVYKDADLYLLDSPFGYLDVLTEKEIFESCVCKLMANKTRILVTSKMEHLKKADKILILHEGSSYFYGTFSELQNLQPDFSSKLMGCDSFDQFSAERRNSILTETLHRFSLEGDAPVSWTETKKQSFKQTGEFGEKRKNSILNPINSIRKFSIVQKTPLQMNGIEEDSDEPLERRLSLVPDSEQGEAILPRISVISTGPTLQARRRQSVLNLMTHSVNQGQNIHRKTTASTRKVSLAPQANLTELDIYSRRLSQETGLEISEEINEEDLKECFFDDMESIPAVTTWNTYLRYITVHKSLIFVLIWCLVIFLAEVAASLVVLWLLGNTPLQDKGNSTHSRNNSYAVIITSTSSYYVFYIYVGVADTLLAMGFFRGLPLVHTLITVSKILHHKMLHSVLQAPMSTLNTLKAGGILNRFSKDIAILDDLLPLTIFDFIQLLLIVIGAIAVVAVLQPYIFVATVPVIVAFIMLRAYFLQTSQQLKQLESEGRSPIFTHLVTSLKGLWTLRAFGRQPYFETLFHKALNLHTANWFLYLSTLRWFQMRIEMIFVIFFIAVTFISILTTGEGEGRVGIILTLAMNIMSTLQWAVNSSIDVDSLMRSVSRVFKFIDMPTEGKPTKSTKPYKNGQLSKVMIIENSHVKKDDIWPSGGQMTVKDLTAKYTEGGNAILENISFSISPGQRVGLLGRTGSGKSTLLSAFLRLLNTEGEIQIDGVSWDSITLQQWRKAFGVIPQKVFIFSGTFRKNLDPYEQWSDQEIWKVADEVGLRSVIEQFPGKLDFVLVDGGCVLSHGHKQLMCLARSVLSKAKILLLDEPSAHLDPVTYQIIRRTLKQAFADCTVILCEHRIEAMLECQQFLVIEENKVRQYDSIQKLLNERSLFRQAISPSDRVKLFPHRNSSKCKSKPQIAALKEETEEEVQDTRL
Method in brief: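 Potentiator read-out as 1−F/F0, F taken 36 s after iodide addition, EC50 fitted against compound concentration. Cells: CFBE41o- expressing ΔF508 CFTR plus halide-sensitive YFP via adenovirus, rescued by 27 °C for 24 h or 24 h modulator at 37 °C.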

[3] = biological target: T3, CFTR-G1349D (Homo sapiens, UniProt P13569, G1349D); assay: YFP-halide influx assay for the CFTR-G1349D
T3 construct: expressed in transfected cells
T3 sequence (P13569 whole entry G1349D): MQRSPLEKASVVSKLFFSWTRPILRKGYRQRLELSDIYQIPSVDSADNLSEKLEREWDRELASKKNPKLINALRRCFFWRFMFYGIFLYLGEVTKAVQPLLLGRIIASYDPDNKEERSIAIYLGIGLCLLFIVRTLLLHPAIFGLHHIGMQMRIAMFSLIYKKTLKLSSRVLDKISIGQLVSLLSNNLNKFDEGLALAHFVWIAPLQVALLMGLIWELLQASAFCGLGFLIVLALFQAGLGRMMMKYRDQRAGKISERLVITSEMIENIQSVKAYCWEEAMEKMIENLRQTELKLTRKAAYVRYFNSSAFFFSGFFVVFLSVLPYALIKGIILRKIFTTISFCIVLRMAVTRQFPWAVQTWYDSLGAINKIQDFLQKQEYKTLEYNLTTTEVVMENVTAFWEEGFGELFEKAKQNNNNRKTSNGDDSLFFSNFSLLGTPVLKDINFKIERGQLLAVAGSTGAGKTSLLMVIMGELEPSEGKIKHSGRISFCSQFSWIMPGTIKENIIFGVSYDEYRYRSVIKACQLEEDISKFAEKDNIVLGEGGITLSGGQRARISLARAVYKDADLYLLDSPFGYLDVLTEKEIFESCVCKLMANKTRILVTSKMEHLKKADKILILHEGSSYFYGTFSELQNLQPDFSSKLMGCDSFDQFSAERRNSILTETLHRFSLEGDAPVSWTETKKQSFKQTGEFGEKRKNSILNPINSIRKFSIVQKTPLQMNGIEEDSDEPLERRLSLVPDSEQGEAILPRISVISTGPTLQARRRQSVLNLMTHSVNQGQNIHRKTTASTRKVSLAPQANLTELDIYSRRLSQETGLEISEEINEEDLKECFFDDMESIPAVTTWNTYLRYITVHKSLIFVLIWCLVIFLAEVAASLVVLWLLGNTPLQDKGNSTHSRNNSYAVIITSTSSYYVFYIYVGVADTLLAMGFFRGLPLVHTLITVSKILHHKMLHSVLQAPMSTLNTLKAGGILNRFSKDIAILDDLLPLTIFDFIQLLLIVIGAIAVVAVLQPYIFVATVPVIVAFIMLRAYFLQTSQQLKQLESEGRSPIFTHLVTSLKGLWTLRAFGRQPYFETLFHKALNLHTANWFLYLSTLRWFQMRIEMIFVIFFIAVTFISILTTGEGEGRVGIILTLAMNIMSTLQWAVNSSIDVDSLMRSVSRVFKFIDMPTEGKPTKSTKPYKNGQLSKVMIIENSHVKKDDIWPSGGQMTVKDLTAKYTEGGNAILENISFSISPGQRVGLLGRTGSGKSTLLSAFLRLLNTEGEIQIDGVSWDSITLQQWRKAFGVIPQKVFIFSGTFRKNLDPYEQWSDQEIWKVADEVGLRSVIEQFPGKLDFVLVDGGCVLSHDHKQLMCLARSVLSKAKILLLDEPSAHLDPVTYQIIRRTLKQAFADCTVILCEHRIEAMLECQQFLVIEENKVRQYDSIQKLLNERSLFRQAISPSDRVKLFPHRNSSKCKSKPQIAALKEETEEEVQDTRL
Text: as §1, §2, §3, §4

[4] = biological target: T4, CFTR-G178R (Homo sapiens, UniProt P13569, G178R); assay: YFP-halide influx assay for the CFTR-G178R
T4 construct: expressed in transfected cells
T4 sequence (P13569 whole entry G178R): as the sequence (P13569 whole entry G1349D) above, with G178R, D1349G counted along it
Text: as §1, §2, §3, §4

[5] = biological target: T5, CFTR G551D mutant (Homo sapiens, UniProt P13569, G551D); assay: YFP-halide influx assay for the CFTR-G551D mutation; details: HEK293 cells, forskolin 10.67 μM
T5 construct: expressed in transfected cells; host or cells: HEK293 (reverse transfection with plasmid)
T5 sequence (P13569 whole entry G551D): as the sequence (P13569 whole entry G1349D) above, with G551D, D1349G counted along it
Method in brief: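 HEK293 cells reverse-transfected with CFTR G551D and YFP H148Q/I152L/F47L halide sensor, expressed 24 h at 37 °C. Iodide-induced fluorescence quench recorded 7 s after I− injection; response = 1−F/F0, with EC50 from plot against compound concentration.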

[6] = biological target: T6, CFTR-R117H (Homo sapiens, UniProt P13569, R117H); assay: YFP-halide influx assay for the CFTR-R117H
T6 construct: expressed in transfected cells
T6 sequence (P13569 whole entry R117H): as the sequence (P13569 whole entry G1349D) above, with R117H, D1349G counted along it
Text: as §1, §2, §3, §4

T1 sequence (P13569 whole entry S549N): as the sequence (P13569 whole entry G1349D) above, with S549N, D1349G counted along it

| Structure (SMILES) | EC50 [1] | EC50 [2] | EC50 [3] | EC50 [4] | EC50 [5] | EC50 [6] | EC50 ([3]; class symbol) | EC50 ([5]; class symbol) |
| --- | --- | --- | --- | --- | --- | --- | --- | --- |
| NC(=O)c1cc(S(=O)(=O)c2ccccc2OC(F)(F)F)sc1NC(=O)C1(CO)CC1 [Compound 320, 2-[(1-Hydroxymethyl-cyclopropanecarbonyl)-amino]-5-(2-trifluoromethoxy-benzenesulfonyl)-thiophene-3-carboxylic acid amide] | 131 nM | 12.9 nM | 31.6 nM | 56.2 nM | 97.3 nM | 87.7 nM | – | – |
| CC(C)(O)C(=O)Nc1sc(S(=O)(=O)c2cc(F)ccc2Br)cc1C(N)=O [Compound 323, 5-(2-Bromo-5-fluoro-benzenesulfonyl)-2-(2-hydroxy-2-methyl-propionylamino)-thiophene-3-carboxylic acid amide] | 1510 nM | 9.4 nM | 459 nM | 189 nM | 227 nM | 342 nM | – | – |
| CC(O)C(=O)Nc1sc(S(=O)(=O)c2ccc(F)cc2C(F)(F)F)cc1C(N)=O (centres unmarked) [Compound 325, 5-[4-fluoro-2-(trifluoromethyl)phenyl] sulfonyl-2-(2-hydroxypropanoylamino) thiophene-3-carboxamide] | 2140 nM | 11.1 nM | 2570 nM | 1880 nM | 2790 nM | 793 nM | – | – |
| CC(O)C(=O)Nc1sc(S(=O)(=O)c2ccc(F)cc2Cl)cc1C(N)=O (centres unmarked) [Compound 329, 5-(2-chloro-4-fluoro-phenyl) sulfonyl-2-(2-hydroxypropanoylamino) thiophene-3-carboxamide] | 2690 nM | 23.2 nM | 2050 nM | 1680 nM | 1400 nM | 851 nM | – | – |
| C[C@H](O)C(=O)Nc1sc(S(=O)(=O)c2ccc(OC(F)(F)F)cc2)cc1C(N)=O [Compound 331, 2-[[(2S)-2-hydroxypropanoyl]amino]-5-[4-(trifluoromethoxy)phenyl] sulfonyl-thiophene-3-carboxamide] | 522 nM | 8 nM | 117 nM | 67.7 nM | 562 nM | 95 nM | – | – |
| CC(O)C(=O)Nc1sc(S(=O)(=O)c2cc(F)ccc2Cl)cc1C(N)=O (centres unmarked) [Compound 333, 5-(2-chloro-5-fluoro-phenyl)sulfonyl-2-(2-hydroxypropanoylamino) thiophene-3-carboxamide] | 547 nM | 12.6 nM | 847 nM | 620 nM | 754 nM | 467 nM | – | – |
| CC(O)C(=O)Nc1sc(S(=O)(=O)c2cc(F)ccc2CC(F)(F)F)cc1C(N)=O (centres unmarked) [Compound 334, 5-[5-fluoro-2-(2,2,2-trifluoroethyl)phenyl] sulfonyl-2-(2-hydroxypropanoylamino) thiophene-3-carboxamide] | 336 nM | 3.7 nM | 47.7 nM | 44.5 nM | 150 nM | 118 nM | – | – |
| CC(C)(O)C(=O)Nc1sc(S(=O)(=O)c2cc(F)ccc2Cl)cc1C(N)=O [Compound 337, 5-(2-chloro-5-fluoro-phenyl)sulfonyl-2-[(2-hydroxy-2-methyl-propanoyl)amino] thiophene-3-carboxamide] | 107 nM | 5.5 nM | 48.7 nM | 27.2 nM | 879 nM | 56.3 nM | – | – |
| CC(CO)C(=O)Nc1sc(S(=O)(=O)c2ccc(F)cc2Cl)cc1C(N)=O (centres unmarked) [Compound 360, 5-(2-chloro-4-fluoro-phenyl)sulfonyl-2-[(3-hydroxy-2-methyl-propanoyl)amino] thiophene-3-carboxamide] | 188 nM | 9.55 nM | 223 nM | 123 nM | 635 nM | 49.3 nM | – | – |
| CC(C)(O)C(=O)Nc1sc(S(=O)(=O)c2ccc(C(F)(F)F)cn2)cc1C(N)=O [Compound 363, 2-[(2-hydroxy-2-methyl-propanoyl)amino]-5-[[5-(trifluoromethyl)-2-pyridyl]sulfonyl]thiophene-3-carboxamide] | 221 nM | 28.5 nM | 320 nM | 69 nM | 491 nM | 90.6 nM | – | – |
| CC(O)C(=O)Nc1sc(S(=O)(=O)c2ccc(C(F)(F)F)cc2F)cc1C(N)=O (centres unmarked) [Compound 368, 5-[2-fluoro-4-(trifluoromethyl)phenyl]sulfonyl-2-(2-hydroxypropanoylamino) thiophene-3-carboxamide] | 55.5 nM | 17.3 nM | 100 nM | 32.7 nM | 321 nM | 33.7 nM | – | – |
| CC(CO)C(=O)Nc1sc(S(=O)(=O)c2ccc(C(F)(F)F)cc2)cc1C(N)=O (centres unmarked) [Compound 369, 2-[(3-hydroxy-2-methyl-propanoyl)amino]-5-[4-(trifluoromethyl)phenyl] sulfonyl-thiophene-3-carboxamide] | 445 nM | 11.6 nM | 195 nM | 74.6 nM | 691 nM | 142 nM | – | – |
| COc1ccc(OC(F)(F)F)c(S(=O)(=O)c2cc(C(N)=O)c(NC(=O)C(C)(C)O)s2)c1 [Compound 373, 2-[(2-hydroxy-2-methyl-propanoyl)amino]-5-[5-methoxy-2-(trifluoromethoxy)phenyl]sulfonyl-thiophene-3-carboxamide] | 70.5 nM | 13.2 nM | 31.9 nM | 19.7 nM | 100 nM | 46.1 nM | – | – |
| CC(C)(O)C(=O)Nc1sc(S(=O)(=O)c2ccc(OC(F)(F)F)cn2)cc1C(N)=O [Compound 374, 2-[(2-hydroxy-2-methyl-propanoyl)amino]-5-[[5-(trifluoromethoxy)-2-pyridyl]sulfonyl] thiophene-3-carboxamide] | 1830 nM | 58.3 nM | 807 nM | 610 nM | 1330 nM | 365 nM | – | – |
| CC(C)(O)C(=O)Nc1sc(S(=O)(=O)c2ccc(OC(F)(F)F)cc2F)cc1C(N)=O [Compound 375, 5-[2-fluoro-4-(trifluoromethoxy)phenyl] sulfonyl-2-[(2-hydroxy-2-methyl-propanoyl)amino] thiophene-3-carboxamide] | 199 nM | 7.53 nM | 146 nM | 93.4 nM | 681 nM | 253 nM | – | – |
| CC(C)(O)C(=O)Nc1sc(S(=O)(=O)c2ccc(C(F)(F)F)cc2F)cc1C(N)=O [Compound 376, 5-[2-fluoro-4-(trifluoromethyl)phenyl] sulfonyl-2-[(2-hydroxy-2-methyl-propanoyl)amino] thiophene-3-carboxamide] | 251 nM | 8.07 nM | 173 nM | 86.9 nM | 522 nM | 138 nM | – | – |
| CC(C)(O)C(=O)Nc1sc(S(=O)(=O)c2ccc(OC(F)(F)F)c(F)c2)cc1C(N)=O [Compound 377, 5-[3-fluoro-4-(trifluoromethoxy)phenyl] sulfonyl-2-[(2-hydroxy-2-methyl-propanoyl)amino] thiophene-3-carboxamide] | 935 nM | 40.5 nM | 135 nM | 241 nM | 711 nM | 779 nM | – | – |
| C[C@@H](CO)C(=O)Nc1sc(S(=O)(=O)c2ccc(OC(F)(F)F)cc2)cc1C(N)=O [Compound 379, 2-[[(2S)-3-hydroxy-2-methyl-propanoyl]amino]-5-[4-(trifluoromethoxy)phenyl] sulfonyl-thiophene-3-carboxamide] | 155 nM | 16.7 nM | 58.6 nM | 75.8 nM | 655 nM | 96.7 nM | – | – |
| Cc1c(S(=O)(=O)c2ccc(OC(F)(F)F)cc2)sc(NC(=O)C(C)(C)O)c1C(N)=O [Compound 437, 2-[(2-hydroxy-2-methyl-propanoyl)amino]-4-methyl-5-[4-(trifluoromethoxy)phenyl]sulfonyl-thiophene-3-carboxamide] | 121 nM | 6.24 nM | – | – | – | 264 nM | > 1000 nM | > 1000 nM |
